Reference: patent US20210038668A1, “TRADITIONAL CHINESE MEDICINE COMPOSITION FOR PREVENTING AND/OR TREATING ISCHEMIC REPERFUSION INJURY” (TASLY PHARMACEUTICAL GROUP CO., LTD., priority 2018, published 2021)

Experiments:
Bax = test: Western blotting of Bax in brain tissue; type: in vivo, C57BL/6 mice; details: brain tissue 24 h after administration, sham = 1.00; tPA 10 mg/kg alone or + T541 20 mg/kg or ingredients at Table 7 doses
Excerpt: To compare the therapeutical effect on reperfusion injury caused by tPA thrombolysis between the traditional Chinese medicinal composition of the present invention and each ingredient (total saponins of Astragalus, the experiment was divided into the following group (tPA is combined with T541, individual ingredient thereof and compatibility of any two ingredients) specifically as follows: tPA+total saponins of Astragalus (tPA+HQ), tPA+ salvianolic acids (tPA+DS), tPA+Panax notoginseng saponins (tPA+SQ), tPA+ total saponins of Astragalus+salvianolic acids (tPA+HQ+DS), tPA+ total saponins of Astragalus+Panax notoginseng saponins (tPA+HQ+SQ), tPA+ salvianolic acids+Panax notoginseng saponins (tPA+DS+SQ) and tPA+T541. Normal saline served as an isovolumetric control. The usage number in each group is 6.
After reperfused for 24 hours, mice were perfused by normal saline; Western blotting analysis was conducted to the penumbra field of infarcted right cerebral cortex. […] Excessive supernatant was taken out and quantified by a BCA protein quantification liquor (ThermoScientific, US) to measure absorbance value at 560 nm of ELIASA and to calculate the protein concentration according to a standard curve. […] The density of electrophoretic strips was analyzed by an image analysis software Quantityone. […]

JAM-1 = test: Western blotting of JAM-1, cortex of ischemic penumbra; type: in vivo, C57BL/6 mice; details: brain tissue 24 hours after administration, sham = 1.00; tPA 10 mg/kg alone; T541 20 mg/kg + tPA 10 mg/kg
Description: After reperfused for 24 hours, mice were perfused by normal saline; Western blotting analysis was conducted to the penumbra field of infarcted right cerebral cortex. After perfused, mice brain tissue was taken out; cerebellum and prefrontal lobe were cut off; the brain tissue of right brain close to 1 cm of the central joint of left and right hemispheres along the sagittal view; infarcted penumbra field of the rest tissues was cut off along an 45° angle; the cerebral cortex of the penumbra field was peeled off and preserved at low temperature. Right cerebral cortex was taken and added 1×RIPA lysate and a Cocktail protease inhibitor (1:100, Cell Signaling Technology, US) for full pyrolysis and ultrasonic treatment, and then 17000 g were centrifuged for 30 minutes. Supernatant was taken and added 5×loading buffer by volume, boiled for 20 minutes in boiling water, and then preserved at −80° C. Excessive supernatant was taken out and quantified by a BCA protein quantification liquor (ThermoScientific, US) to measure absorbance value at 560 nm of ELIASA and to calculate the protein concentration according to a standard curve. […] The density of electrophoretic strips was analyzed by an image analysis software Quantityone. […]

With “tPA: tissue-type plasminogen activator (tPA) for thrombolysis” the Bax (Bax) was 5.52 ± 0.78, the Bax/Bcl-2 (Bax) was 3.82 ± 0.57 and the JAM-1/β-actin (JAM-1) was 0.52 ± 0.04.
